The record followed here is US8901138B2, “Sulfoximine substituted quinazolines for pharmaceutical compositions” (Boehringer Ingelheim International GmbH, priority 2012, dated 2014).

The target in one assay is T1, MNK2a (Homo sapiens, UniProt Q9HBH9).
T1 construct: made in house
T1 sequence (Q9HBH9 whole entry): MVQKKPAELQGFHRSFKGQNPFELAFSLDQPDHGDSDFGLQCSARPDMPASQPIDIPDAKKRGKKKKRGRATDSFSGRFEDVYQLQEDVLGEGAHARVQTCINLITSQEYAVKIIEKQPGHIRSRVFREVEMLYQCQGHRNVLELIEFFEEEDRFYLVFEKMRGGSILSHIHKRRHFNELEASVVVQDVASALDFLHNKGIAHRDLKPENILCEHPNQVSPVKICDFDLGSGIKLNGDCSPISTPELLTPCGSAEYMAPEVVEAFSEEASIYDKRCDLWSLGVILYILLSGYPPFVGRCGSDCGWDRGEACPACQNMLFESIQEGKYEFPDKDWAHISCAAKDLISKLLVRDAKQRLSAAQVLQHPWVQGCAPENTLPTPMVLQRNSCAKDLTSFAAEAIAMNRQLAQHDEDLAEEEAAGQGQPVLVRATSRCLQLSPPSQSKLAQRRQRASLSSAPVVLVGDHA
Nature of the assay: MNK2a in vitro kinase assay (assay 1), ADP-Glo. The class given is biochemical. The following applies: preactivated GST-MNK2a, 20 μM ATP, read-out: MNK2 IC50. In outline: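 Preactivated GST-MNK2a (10 nM) with eIF4E peptide (25 μM) and ATP (20 μM) in HEPES/DTT/MgCl2 buffer, 90 min at room temperature, final DMSO <3%. ADP formed read by ADP-Glo luminescence and normalised to vehicle and 20 μM reference-inhibitor controls; IC50 from dose-response curves.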
(In ADP-Glo the light output rises with the ADP produced.)
Consider `Cc1cc(N=S(C)(=O)c2ccncc2)cc2ncnc(Nc3ccc(F)cc3O[C@H]3CCOC3)c12` (stereo partly shown) [Example 2.100], for which the IC50 (usually the midpoint of a concentration-inhibition curve) came to 6 nM.
The same measure, in the same setting: then `CS(C)(=O)=Nc1cc(OC(F)F)c2c(Nc3ccc(F)cc3O[C@H]3CCOC3)ncnc2c1` [Example 1.23], with 4 nM.
`Cc1cc(N=S(C)(C)=O)cc2ncnc(Nc3cccnc3OC3COCCOC3)c12` [Example 2.91]: the IC50 is 7 nM.
Turning to `CCS(C)(=O)=Nc1cc(C)c2c(Nc3cccnc3O[C@H]3CC[C@H](O)CC3)ncnc2c1` (stereo partly shown) [Example 2.44], the IC50 turned out to be 3 nM.
Consider `CCS(C)(=O)=Nc1cc(C)c2c(Nc3ccc(F)cc3O[C@H]3CC[C@H](OC)CC3)ncnc2c1` (stereo partly shown) [Example 2.81], for which the IC50 was 4 nM.
Same read-out and setting: with `CO[C@@H]1CO[C@H]2[C@@H]1OC[C@H]2Oc1cc(F)ccc1Nc1ncnc2cc(N=S(C)(C)=O)cc(OCC(F)F)c12` [Example 5.7] the figure was 2 nM; with `Cc1cc(N=S(C)(C)=O)cc2ncnc(Nc3cccnc3O[C@@H]3CCCN(CCO)C3)c12` [Example 6.10], 8 nM; with `CS(C)(=O)=Nc1cc(O)c2c(Nc3ccc(F)cc3O[C@H]3CCOC3)ncnc2c1` [Example 1.22], 25 nM.
Consider `CS(C)(=O)=Nc1cc(F)c2c(Nc3ccc(F)cc3O[C@@H]3CCN(CCO)C3)ncnc2c1` [Example 6.15], for which the IC50 was found to be 24 nM.
Turning to `O=S1(=Nc2cc(Cl)c3c(Nc4ccc(F)cc4O[C@@H]4CO[C@@H]5CCO[C@@H]54)ncnc3c2)CCC1` [Example 1.27], the IC50 was found to be 1 nM.
Turning to `Cc1cc(N=S2(=O)CCCC2)cc2ncnc(Nc3ccc(F)cc3O[C@@H]3CCCNC3)c12` [Example 3.12], the IC50 is 3 nM.
Still for that read-out and setting: then `Cc1cc(N=S(C)(C)=O)cc2ncnc(Nc3ccc(Cl)nc3O[C@H]3CCOC3)c12` [Example 1.41], with 3 nM; and `CSc1cc(N=S(C)(C)=O)cc2ncnc(Nc3ccc(F)cc3O[C@H]3CCOC3)c12` [Example 7.10], with 2 nM; and `Cc1cc(N=S(C)(C)=O)cc2ncnc(Nc3ccc(F)cc3O[C@@H]3CCCC[C@H]3F)c12` [Example 7.17], with 1 nM.
Still for that read-out and setting: then `Cc1cc(N=S(C)(=O)c2ccccn2)cc2ncnc(Nc3ccc(F)cc3O[C@H]3CCOC3)c12` (stereo partly shown) [Example 2.38], with 7 nM.
Same read-out and setting: then `Cc1cc(N=S(C)(C)=O)cc2ncnc(Nc3ccc(F)cc3O[C@@H]3CO[C@H]4[C@@H]3OC[C@H]4O)c12` [Example 1.18], with 2 nM.
With `COCCS(C)(=O)=Nc1cc(C)c2c(Nc3ccc(F)cc3O[C@@H]3CO[C@H]4[C@@H]3OC[C@H]4O)ncnc2c1` (stereo partly shown) [Example 2.41], the IC50 is 6 nM.
`Cc1cc(N=S2(=O)CCCC2)cc2ncnc(Nc3ccc(F)cc3O[C@@H]3CCN(C(=O)OC(C)(C)C)C3)c12` [Example 2.59]: the IC50 stood at 15 nM.
The same measure, in the same setting: with `Cc1cc(N=S(C)(C)=O)cc2ncnc(Nc3ccc(F)cc3O[C@H]3CO[C@H]4[C@@H]3OC[C@@H]4O)c12` [Example 2.80] the figure was 19 nM; with `Cc1cc(N=S2(=O)CCCC2)cc2ncnc(Nc3cccnc3OC3COCCOC3)c12` [Example 2.88], 5 nM; with `CCOc1cc(N=S(C)(C)=O)cc2ncnc(Nc3ccc(F)cc3O[C@H]3CCOC3)c12` [Example 5.1], 2 nM.
The same measure, in the same setting: with `Cc1cc(N=S2(=O)CCCC2)cc2ncnc(Nc3ccc(F)cc3O[C@@H]3CCCN(C(=O)OC(C)(C)C)C3)c12` [Example 2.66] the figure was 16 nM; with `Cc1cc(N=S2(=O)CCOCC2)cc2ncnc(Nc3ccc(F)cc3O[C@H]3CCOC3)c12` [Example 2.3], 5 nM.

The next assay deals with MNK1a (Homo sapiens, UniProt Q9BUB5). The assay is described as follows: MNK1 in vitro kinase assay (assay 2), Z'-LYTE. The class given is biochemical. The following applies: compound concentration of 1 μM. In outline: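 Pre-activated GST-MNK1a (13.5-54 ng) with 2 μM Ser/Thr 07 FRET peptide in 50 mM HEPES pH 7.5, 10 mM MgCl2, 2 mM MnCl2, 1 mM EGTA, 1 mM DTT, 1% DMSO; 1 h kinase then 1 h development at room temperature. Coumarin/fluorescein emission ratio gives % phosphorylation; sigmoidal dose-response fit.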
MNK1a, sequence (Q9BUB5 1-424 isoform Q9BUB5-2): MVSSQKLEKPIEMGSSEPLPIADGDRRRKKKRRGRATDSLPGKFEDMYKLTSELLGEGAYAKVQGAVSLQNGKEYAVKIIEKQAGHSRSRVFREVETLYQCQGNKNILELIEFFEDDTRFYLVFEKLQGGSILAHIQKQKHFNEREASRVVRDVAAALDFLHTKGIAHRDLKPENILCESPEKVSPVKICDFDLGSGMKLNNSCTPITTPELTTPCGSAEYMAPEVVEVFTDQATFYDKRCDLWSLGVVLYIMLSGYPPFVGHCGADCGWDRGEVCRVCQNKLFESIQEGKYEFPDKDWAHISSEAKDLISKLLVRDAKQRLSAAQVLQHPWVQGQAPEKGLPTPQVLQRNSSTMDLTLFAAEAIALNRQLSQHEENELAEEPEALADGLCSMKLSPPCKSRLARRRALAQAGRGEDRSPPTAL
For `Cc1cc(N=S(C)(=O)c2ccncc2)cc2ncnc(Nc3ccc(F)cc3O[C@H]3CCOC3)c12` (stereo partly shown) [Example 2.100], the inhibition (usually the change of the read-out against control, counted positive when it falls) at 1 µM was 89%.
Regarding `CS(C)(=O)=Nc1cc(OC(F)F)c2c(Nc3ccc(F)cc3O[C@H]3CCOC3)ncnc2c1` [Example 1.23], the inhibition at 1 µM was 94%.
Turning to `Cc1cc(N=S(C)(C)=O)cc2ncnc(Nc3cccnc3OC3COCCOC3)c12` [Example 2.91], the inhibition at 1 µM came out at 93%.
On the same count and under the same terms, with `CCS(C)(=O)=Nc1cc(C)c2c(Nc3cccnc3O[C@H]3CC[C@H](O)CC3)ncnc2c1` (stereo partly shown) [Example 2.44] the figure was 100%.
Still for that read-out and setting: then `CCS(C)(=O)=Nc1cc(C)c2c(Nc3ccc(F)cc3O[C@H]3CC[C@H](OC)CC3)ncnc2c1` (stereo partly shown) [Example 2.81], with 92%; and `Cc1cc(N=S(C)(C)=O)cc2ncnc(Nc3cccnc3O[C@@H]3CCCN(CCO)C3)c12` [Example 6.10], with 89%; and `CS(C)(=O)=Nc1cc(O)c2c(Nc3ccc(F)cc3O[C@H]3CCOC3)ncnc2c1` [Example 1.22], with 56%.
Still for that read-out and setting: then `CS(C)(=O)=Nc1cc(F)c2c(Nc3ccc(F)cc3O[C@@H]3CCN(CCO)C3)ncnc2c1` [Example 6.15], with 82%; and `Cc1cc(N=S2(=O)CCCC2)cc2ncnc(Nc3ccc(F)cc3O[C@@H]3CCCNC3)c12` [Example 3.12], with 95%.
Take `CSc1cc(N=S(C)(C)=O)cc2ncnc(Nc3ccc(F)cc3O[C@H]3CCOC3)c12` [Example 7.10]: the inhibition at 1 µM stood at 100%.
With `Cc1cc(N=S(C)(C)=O)cc2ncnc(Nc3ccc(F)cc3O[C@@H]3CCCC[C@H]3F)c12` [Example 7.17], the inhibition at 1 µM is 96%.
As for `Cc1cc(N=S(C)(=O)c2ccccn2)cc2ncnc(Nc3ccc(F)cc3O[C@H]3CCOC3)c12` (stereo partly shown) [Example 2.38], the inhibition at 1 µM worked out at 82%.
Still for that read-out and setting: then `Cc1cc(N=S(C)(C)=O)cc2ncnc(Nc3ccc(F)cc3O[C@@H]3CO[C@H]4[C@@H]3OC[C@H]4O)c12` [Example 1.18], with 100%.
With `COCCS(C)(=O)=Nc1cc(C)c2c(Nc3ccc(F)cc3O[C@@H]3CO[C@H]4[C@@H]3OC[C@H]4O)ncnc2c1` (stereo partly shown) [Example 2.41], the inhibition at 1 µM stood at 90%.
The same measure, in the same setting: with `Cc1cc(N=S2(=O)CCCC2)cc2ncnc(Nc3ccc(F)cc3O[C@@H]3CCN(C(=O)OC(C)(C)C)C3)c12` [Example 2.59] the figure was 82%; with `Cc1cc(N=S(C)(C)=O)cc2ncnc(Nc3ccc(F)cc3O[C@H]3CO[C@H]4[C@@H]3OC[C@@H]4O)c12` [Example 2.80], 73%.
As for `Cc1cc(N=S2(=O)CCCC2)cc2ncnc(Nc3cccnc3OC3COCCOC3)c12` [Example 2.88], the inhibition at 1 µM is 95%.
The same measure, in the same setting: with `CCOc1cc(N=S(C)(C)=O)cc2ncnc(Nc3ccc(F)cc3O[C@H]3CCOC3)c12` [Example 5.1] the figure was 101%.
`Cc1cc(N=S2(=O)CCCC2)cc2ncnc(Nc3ccc(F)cc3O[C@@H]3CCCN(C(=O)OC(C)(C)C)C3)c12` [Example 2.66]: the inhibition at 1 µM stood at 88%.
For the compound `Cc1cc(N=S2(=O)CCOCC2)cc2ncnc(Nc3ccc(F)cc3O[C@H]3CCOC3)c12` [Example 2.3], the inhibition at 1 µM turned out to be 89%.

The same assay, now with this note: pre-activated GST-MNK1a.
Take `CO[C@@H]1CO[C@H]2[C@@H]1OC[C@H]2Oc1cc(F)ccc1Nc1ncnc2cc(N=S(C)(C)=O)cc(OCC(F)F)c12` [Example 5.7]: the IC50 is 43 nM.
The same measure, in the same setting: with `O=S1(=Nc2cc(Cl)c3c(Nc4ccc(F)cc4O[C@@H]4CO[C@@H]5CCO[C@@H]54)ncnc3c2)CCC1` [Example 1.27] the figure was 11 nM; with `Cc1cc(N=S(C)(C)=O)cc2ncnc(Nc3ccc(Cl)nc3O[C@H]3CCOC3)c12` [Example 1.41], 74 nM.
